In experiment [1] the target is T1, Androgen receptor (Homo sapiens) (UniProt P10275).
T1 sequence (whole entry): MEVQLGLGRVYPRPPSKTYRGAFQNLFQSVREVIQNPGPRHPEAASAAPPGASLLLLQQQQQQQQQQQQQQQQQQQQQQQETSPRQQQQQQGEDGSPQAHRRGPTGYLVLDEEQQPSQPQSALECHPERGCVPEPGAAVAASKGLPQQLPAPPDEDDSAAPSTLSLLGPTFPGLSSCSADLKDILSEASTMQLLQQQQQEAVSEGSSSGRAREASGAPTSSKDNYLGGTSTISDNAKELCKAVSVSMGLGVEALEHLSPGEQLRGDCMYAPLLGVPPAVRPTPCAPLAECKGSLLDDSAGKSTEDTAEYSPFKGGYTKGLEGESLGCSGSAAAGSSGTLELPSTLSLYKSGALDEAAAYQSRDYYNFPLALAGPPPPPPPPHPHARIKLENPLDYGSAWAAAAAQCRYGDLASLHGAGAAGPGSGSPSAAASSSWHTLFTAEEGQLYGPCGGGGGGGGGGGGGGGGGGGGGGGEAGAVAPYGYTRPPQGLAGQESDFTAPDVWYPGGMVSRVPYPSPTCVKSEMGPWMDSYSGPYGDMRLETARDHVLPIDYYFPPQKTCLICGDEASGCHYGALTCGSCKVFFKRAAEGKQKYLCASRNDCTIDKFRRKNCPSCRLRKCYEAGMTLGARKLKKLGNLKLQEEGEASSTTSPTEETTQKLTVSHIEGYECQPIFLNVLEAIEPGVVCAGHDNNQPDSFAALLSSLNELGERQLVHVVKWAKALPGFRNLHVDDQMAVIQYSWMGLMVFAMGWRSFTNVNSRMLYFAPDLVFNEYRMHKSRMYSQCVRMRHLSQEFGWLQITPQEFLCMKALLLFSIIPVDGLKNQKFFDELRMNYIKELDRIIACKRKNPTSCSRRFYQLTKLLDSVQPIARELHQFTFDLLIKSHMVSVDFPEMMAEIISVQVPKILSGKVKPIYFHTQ
The experiment in a line: Antagonist activity at AR in human LNCAP cells assessed as suppression of DHT-induced receptor transcriptional activity at 500 nM after 24 hrs by dual luciferase reporter gene assay. In kind it is cell-based. In general terms: A reporter such as luciferase makes a cellular process visible.

Experiment [2] addresses T1, Androgen receptor (Homo sapiens). The note with it: LNCaP, at 5 µM.
Description: Antagonist activity at AR in human LNCAP cells assessed as suppression of DHT-induced receptor transcriptional activity at 5 uM after 24 hrs by dual luciferase reporter gene assay
The test system of experiment [3] is T2, Androgen receptor (Homo sapiens), P10275 [F877L].
T2 sequence (whole entry): T1 sequence (whole entry) with F877L
The experiment in a line: Antagonist activity at AR F876L mutant (unknown origin) transfected in human PC3 cells assessed as suppression of DHT-induced receptor transcriptional activity at 500 nM after 24 hrs by PSA-luciferase reporter gene assay. Conditions: PC-3. The format is cell-based.

The target in experiment [4] is T1, Androgen receptor (Homo sapiens). Put plainly: (§1) Antagonist activity at wild type AR in human PC3 cells assessed as suppression of DHT-induced receptor transcriptional activation after 24 hrs by PSA-luciferase reporter gene assay. In kind it is cell-based. The note with it: PC-3.
For experiment [5], the target named is T3, Androgen receptor (Homo sapiens, UniProt P10275).
T3 sequence (P10275 whole entry): T1 sequence (whole entry)
Described as §1. In kind it is cell-based, PC-3.

Experiment [6] concerns Androgen receptor (Homo sapiens), P10275 [T878A]. The experiment in a line: (§2) Antagonist activity at AR T877A mutant (unknown origin) transfected in human PC3 cells assessed as inhibition of DHT-induced receptor transcriptional activation after 24 hrs by PSA-luciferase reporter gene assay. In kind it is cell-based. Conditions: PC-3.
In experiment [7] the target is Androgen receptor (Homo sapiens, UniProt P10275, T878A). The description is as §2. In kind it is cell-based, PC-3.
In experiment [8] the target is T1, Androgen receptor (Homo sapiens). The experiment in a line: Antagonist activity at AR in human LNCAP cells assessed as downregulation of PSA mRNA levels at 500 nM after 24 hrs in presence of DHT by RT-PCR analysis. In kind it is cell-based.
For experiment [9] the target is unchanged. The experiment in a line: Antagonist activity at AR in human LNCAP cells assessed as downregulation of PSA mRNA levels at 5 uM after 24 hrs in presence of DHT by RT-PCR analysis. The format is cell-based.
In a further experiment the test system is LNCaP. Put plainly: Cytotoxicity against human LNCAP cells assessed as cell growth inhibition after 72 hrs by MTT assay. In kind it is functional, cell-based. On the technique in general: Tetrazolium dyes change colour on reduction, which living cells bring about.
Experiment [10] relates to PC-3. The experiment in a line: Cytotoxicity against human PC3 cells assessed as cell growth inhibition after 72 hrs by MTT assay. In kind it is functional, cell-based.
Experiment [11] deals with T4, Androgen receptor (Rattus norvegicus) (UniProt P15207).
T4 sequence (whole entry): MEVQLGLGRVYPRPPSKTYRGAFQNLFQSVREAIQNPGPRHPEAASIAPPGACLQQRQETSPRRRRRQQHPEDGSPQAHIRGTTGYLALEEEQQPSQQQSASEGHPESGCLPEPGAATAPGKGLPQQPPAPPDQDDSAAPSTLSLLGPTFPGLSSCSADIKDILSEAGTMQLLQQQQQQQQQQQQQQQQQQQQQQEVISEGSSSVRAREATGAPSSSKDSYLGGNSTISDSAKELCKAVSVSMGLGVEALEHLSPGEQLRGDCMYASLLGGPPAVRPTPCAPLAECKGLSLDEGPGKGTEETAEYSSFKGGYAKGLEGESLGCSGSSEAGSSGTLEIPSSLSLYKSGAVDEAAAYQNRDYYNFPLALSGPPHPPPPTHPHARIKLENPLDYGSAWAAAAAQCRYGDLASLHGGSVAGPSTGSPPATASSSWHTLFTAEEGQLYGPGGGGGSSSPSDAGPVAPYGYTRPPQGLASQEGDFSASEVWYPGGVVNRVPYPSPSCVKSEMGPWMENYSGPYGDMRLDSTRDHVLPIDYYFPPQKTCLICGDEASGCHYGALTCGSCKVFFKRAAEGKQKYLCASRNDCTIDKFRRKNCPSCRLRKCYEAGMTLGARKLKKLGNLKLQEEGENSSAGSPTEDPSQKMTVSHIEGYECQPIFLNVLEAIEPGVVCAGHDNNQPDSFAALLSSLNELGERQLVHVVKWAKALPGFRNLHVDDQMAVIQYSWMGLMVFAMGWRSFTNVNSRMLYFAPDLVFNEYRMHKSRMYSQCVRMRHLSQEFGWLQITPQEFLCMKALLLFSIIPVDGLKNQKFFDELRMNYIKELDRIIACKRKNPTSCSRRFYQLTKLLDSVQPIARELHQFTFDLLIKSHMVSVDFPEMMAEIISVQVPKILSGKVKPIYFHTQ
The experiment in a line: (§3) Displacement of fluormone-DHT green from His/GST-tagged rat AR ligand binding domain after 4 to 8 hrs by fluorescence polarization assay. A general note: Polarisation of emitted light reports the rotation of a fluorescent probe.

Experiment [12] addresses T5, Androgen receptor (Rattus norvegicus, UniProt P15207).
T5 sequence (P15207 whole entry): T4 sequence (whole entry)
The experiment is described as §3.

In experiment [13] the target is T1, Androgen receptor (Homo sapiens). Put plainly: Antagonist activity at AR in human LNCAP cells assessed as downregulation of AR protein expression after 24 hrs by Western blot analysis. In kind it is cell-based.
For experiment [14], the system named is T2, Androgen receptor (Homo sapiens), P10275 [F877L]. Put plainly: (§4) Antagonist activity at AR F876L mutant (unknown origin) expressed in human PC3 cells assessed as inhibition of DHT-induced receptor transactivation after 24 hrs by PSA-luciferase reporter gene assay. In kind it is cell-based. The note with it: PC-3.
The target in experiment [15] is Androgen receptor (Homo sapiens, UniProt P10275, F877L). The description is as §4. The format is cell-based, PC-3.
A short description of a further experiment: cells. Conditions: Homo sapiens, PC-3, 24 h.
In experiment [16] the test system is PC-3. The experiment in a line: Agonist activity at AR W741C/T877A double mutant (unknown origin) expressed in human PC3 cells assessed as receptor transactivation at 5 uM after 24 hrs by PSA-luciferase reporter gene assay. The format is cell-based.

Residue numbers refer to the chain shown, from its start. Calls of active or inactive are those of the source. No cut-off for these calls is given here.

By IC50 is commonly meant the concentration that gives 50% inhibition.

Sequence of Androgen receptor (Homo sapiens), P10275 [T878A] (P10275 whole entry T878A): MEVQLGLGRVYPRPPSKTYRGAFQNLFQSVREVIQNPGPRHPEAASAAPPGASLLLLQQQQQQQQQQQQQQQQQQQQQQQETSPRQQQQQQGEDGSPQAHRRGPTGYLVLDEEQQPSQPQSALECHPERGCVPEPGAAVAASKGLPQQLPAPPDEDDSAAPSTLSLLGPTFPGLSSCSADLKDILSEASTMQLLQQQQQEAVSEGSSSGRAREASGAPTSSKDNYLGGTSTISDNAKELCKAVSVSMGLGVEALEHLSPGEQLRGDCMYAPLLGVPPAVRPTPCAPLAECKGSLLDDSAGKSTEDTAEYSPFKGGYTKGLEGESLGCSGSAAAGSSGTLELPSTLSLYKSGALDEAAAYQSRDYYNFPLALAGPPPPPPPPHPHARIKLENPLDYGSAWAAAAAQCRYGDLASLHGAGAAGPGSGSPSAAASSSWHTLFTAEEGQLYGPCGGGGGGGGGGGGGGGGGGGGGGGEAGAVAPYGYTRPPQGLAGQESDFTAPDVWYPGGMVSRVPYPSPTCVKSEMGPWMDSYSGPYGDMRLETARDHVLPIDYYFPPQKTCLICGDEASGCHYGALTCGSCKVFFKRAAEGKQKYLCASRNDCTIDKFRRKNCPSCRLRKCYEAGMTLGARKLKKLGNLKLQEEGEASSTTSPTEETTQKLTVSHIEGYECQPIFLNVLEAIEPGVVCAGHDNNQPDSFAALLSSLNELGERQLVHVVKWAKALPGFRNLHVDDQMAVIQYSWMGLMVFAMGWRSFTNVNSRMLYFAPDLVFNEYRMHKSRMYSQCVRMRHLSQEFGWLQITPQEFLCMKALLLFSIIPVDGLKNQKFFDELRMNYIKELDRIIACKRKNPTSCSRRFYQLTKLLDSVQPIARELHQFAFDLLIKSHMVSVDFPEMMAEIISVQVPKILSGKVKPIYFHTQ
Sequence of Androgen receptor (Homo sapiens, UniProt P10275, T878A) (P10275 whole entry T878A): as above
Sequence of Androgen receptor (Homo sapiens, UniProt P10275, F877L) (P10275 whole entry F877L): as the sequence (P10275 whole entry T878A) above, with F877L, A878T counted along it
Description for cells: Antagonist activity at AR W741C/T877A double mutant (unknown origin) transfected in human PC3 cells assessed as inhibition of DHT-induced receptor transcriptional activation after 24 hrs by PSA-luciferase reporter gene assay

With `CC(C)[C@]12O[C@H]1[C@@H]1O[C@]13[C@]1(O[C@H]1C[C@H]1C4=C(CC[C@@]13C)C(=O)OC4)[C@@H]2O`, the inhibition result in experiment [1] and in experiment [2] was “Active” each time.

Consider `C[C@@]1(C(=O)O)CC[C@]2(C)CC[C@]3(C)C4=CC(=O)c5c(cc(O)c(O)c5C=O)[C@]4(C)CC[C@@]3(C)[C@@H]2C1`, for which the inhibition entry in [2] is “Active”.

As to `CC(C)c1ccc2c(c1O)CC[C@H]1C3=C(CC[C@]21C)C(=O)OC3` [TRIPTOPHENOLIDE], the inhibition entry in experiment [3], in experiment [1], in experiment [8], in [9] and in experiment [2] was “Active” in each case. The inhibition entry in [4], in [6], in [11], in experiment [13] and in [14] was “Dose-dependent effect” throughout. Besides, the IC50 at Androgen receptor [5] stood at 260 nM; at Androgen receptor [7], 388 nM; at Androgen receptor [12] it was 467 nM; at Androgen receptor [15], 480 nM; in “cells”, 437 nM. Also, in the experiment with LNCaP, the “growth inhibition (GI)” value was “Dose-dependent effect”. For the same compound, the “growth inhibition (GI)” value in the experiment on PC-3 [10] was “Active”.

As to `CC1(C)[C@@H](O)CC[C@]2(C)[C@H]3CC=C4[C@@H]5C[C@@]6(C)C[C@H](OC6=O)[C@]5(C)CC[C@@]4(C)[C@]3(C)CC[C@@H]12`, the inhibition result in experiment [2] was “Active”.

Consider `CC1=C(O)C(=O)C=C2C1=CC=C1[C@@]2(C)CC[C@@]2(C)[C@@H]3C[C@](C)(C(=O)O)CC[C@]3(C)CC[C@]12C`, for which, in [2], the inhibition entry was “Active”.

Take `CC(C)[C@]12O[C@H]1[C@@H]1O[C@@]13[C@@]1(C)CCC4=C(COC4=O)[C@@H]1C[C@@H]1O[C@@]13C2=O`: the inhibition result in experiment [1] and in [2] was “Active” each time.

In the case of `CC(O)(CS(=O)(=O)c1ccc(F)cc1)C(=O)Nc1ccc(C#N)c(C(F)(F)F)c1` (stereo not given), in the experiment on PC-3 [16], the outcome was Active.

The record behind these values is ChEMBL document CHEMBL3862039 (ACS Med Chem Lett, 2016).
